According to patent US5217990A, “Use of macrolactones as anti-allergics” (Boehringer Mannheim GmbH, priority 1989, dated 1993):
Like-named read-outs stand apart in the source and are kept apart here. One block for each molecule: values may come before it.

Legend:
[1] = tested on: lettuce seeds (Lactuca sativa); details: cited from earlier work
[2] = tested on: peripheral human leukocytes; assay: Inhibition of anti-IgE-induced histamine liberation from peripheral human leukocytes; assay type: cell-based
Source text: (§1) For the detection of the anti-allergic action, there was used the inhibition of the proteinase liberation from peripheral human leukocytes induced by anti-IgE antibodies (Wilhelmset et al. XII Congress Europ. Acad. Allergology Clin. Immunology, Rome, Sep. 25--3), 1983, as well as DE-Al-34 46 714) or of the histamine liberation in an analogous process according to a further development of the method of R. P. Siraganian and W. A. Hook (Manual of Clinical Immunology, 2nd edition, 1980, pub. N. R. Rose and H. Friedman, Am. Soc. for Microbiology, pages 808 to 821).
(§2) Description of the Test System for the Testing for Mediator Liberation Inhibition from Human Leukocytes in Vitro
(§3) The liberation of proteinase on isolated human leukocytes is initiated by stimulation with anti-IgE antibodies (IgE-mediated mediator liberation from basophilic granulocytes). The intensity of this liberation reaction is determined by substrate addition (chromozyme TH) and photometric measurement in that the colour intensity of the samples±inhibitor addition are compared.
(§4) Buffy-coat cells=concentrated cell suspension from blood preserve.
(§5) In the following Table I are reproduced the inhibition values of the anti-IgE-induced liberation of histamine and proteinase from peripheral human leukocytes. As comparison substance, there was used the known degranulation inhibitor theophylline.

[3] = tested on: guinea pig lung parenchyma strips; assay: Inhibition of the antigen-caused constriction of passively sensitised guinea pig lung parenchyma strips in vitro (organ bath); parameters: key to R = relaxation: R: relaxation; details: for inhibition at 40 µg/mL / inhibition at 10 µg/mL: Cavia porcellus
Experimental: As further detection for the anti-allergic action, there was investigated the inhibition of the antigen-caused constriction of passive sensitised guinea pig lung parenchyma strips in vitro.
Inhibition of the Antigen-Caused Construction of Passively Sensitised Guinea Pig Lung Parenchyma Strips in Vitro (Organ Bath)
For the in vitro investigation of the compounds according to the invention, there was measured the inhibition of the antigen-caused constriction on passively sensitised guinea pig lung parenchyma strips, as described in the following.
Pirbright white guinea pigs were stunned by neck blow and exsanguinated. The lungs were rinsed in situ substantially free of blood with Krebs buffer, pH 7.4.
Subsequently, the lung was removed, cut up into strips (about 20×4×4 mm) and the strips passively sensitised for 1 hour at room temperature with a 1:50 dilution of a homologous anti-ovalbumin antiserum and then washed with Krebs buffer 1×.
The antiserum had been previously produced in guinea pigs of the same strain according to Davies G. E., T. P. Johnstone (Quantitative studies on anaphylaxis in guinea pigs passively sensitised with homologous antibody; Inter. Arch. 41, 648-654 (1971)) by repeated injection of ovalbumin (2×crystallised) with the addition of complete Freund's adjuvant.
Up to its use, the antiserum was stored undiluted at -18° C.
Subsequently, the lung strips were suspended individually in 10 ml. waterbaths with a prestressing of 1.2 g on an isometric measurement recorder.
Thereafter, the waterbaths were filled with Krebs buffer and continuously gassed at 37° C. with O2 (95%) and CO2 (5%).
The constructions of the lung strips were recorded on a disc via an amplifier.
After 30 minutes acclimatisation phase, histamine control spasms were produced for the recognition of the reaction ability of the organ pieces, washed, subsequently the test substance pre-incubated for 20 minutes at 37° C. and thereafter the ovalbumin-caused constriction initiated.
The inhibition actions of the compounds according to the invention were expressed as percentage reduction of the constriction amplitude of the "samples with test substance" in comparison with the "untreated control constrictions".

[4] = tested on: peripheral human leukocytes; assay: Inhibition of anti-IgE-induced proteinase liberation from peripheral human leukocytes; assay type: cell-based
Source text: as §1, §2, §3, §4, §5

plant growth = details: cited from earlier work
[5] = substance 10.00 mcg/ml, A = histamine 1.0 mcg/ml
[6] = substance 10.00 mcg/ml, B = ovalbumin 0.1 mcg/ml
[7] = substance 10.00 mcg/ml, C = glucose 1.16 %
[8] = substance 10.00 mcg/ml, D = ovalbumin 1.0 mcg/ml
[9] = substance 40.00 mcg/ml, A = histamine 1.0 mcg/ml
[10] = substance 40.00 mcg/ml, B = ovalbumin 0.1 mcg/ml
[11] = substance 40.00 mcg/ml, C = glucose 1.16 %
[12] = substance 40.00 mcg/ml, D = ovalbumin 1.0 mcg/ml
[13] = Homo sapiens, Leukocyte, conc. 2 μg/ml
[14] = Homo sapiens, Leukocyte, conc. 10 μg/ml
[15] = substance 40.00 mcg/ml, A = histamine 1.0 mcg/ml, read-out: Inhibition of constriction (percentage reduction of the constriction amplitude), spasmogen A
[16] = substance 40.00 mcg/ml, B = ovalbumin 0.1 mcg/ml, read-out: Inhibition of constriction (percentage reduction of the constriction amplitude), spasmogen B
[17] = substance 40.00 mcg/ml, C = glucose 1.16 %, read-out: Inhibition of constriction (percentage reduction of the constriction amplitude), spasmogen C
[18] = substance 40.00 mcg/ml, D = ovalbumin 1.0 mcg/ml, read-out: Inhibition of constriction (percentage reduction of the constriction amplitude), spasmogen D
[19] = Homo sapiens, Leukocyte, conc. 90 μg/ml
[20] = substance 10.00 mcg/ml, A = histamine 1.0 mcg/ml, read-out: Inhibition of constriction (percentage reduction of the constriction amplitude), spasmogen A
[21] = substance 10.00 mcg/ml, B = ovalbumin 0.1 mcg/ml, read-out: Inhibition of constriction (percentage reduction of the constriction amplitude), spasmogen B
[22] = substance 10.00 mcg/ml, C = glucose 1.16 %, read-out: Inhibition of constriction (percentage reduction of the constriction amplitude), spasmogen C
[23] = substance 10.00 mcg/ml, D = ovalbumin 1.0 mcg/ml, read-out: Inhibition of constriction (percentage reduction of the constriction amplitude), spasmogen D

% inhibition proteinase ([4]; conc. 2 μg/ml): 5% | % inhibition proteinase ([4]; conc. 10 μg/ml): 46%
Compound: C[C@@H]1CCCCC[C@H](O)[C@H](O)/C=C/C(=O)O1 [cladospolide A]
action on the root growth of lettuce seeds [1]: weakly inhibitingly | % inhibition histamine ([2]; conc. 2 μg/ml): 8% | % inhibition histamine ([2]; conc. 10 μg/ml): 44% | Inhibition of constriction (percentage reduction of the constriction amplitude), spasmogen A [3, 5]: -5% | Inhibition of constriction (percentage reduction of the constriction amplitude), spasmogen B [3, 6]: -50% | Inhibition of constriction (percentage reduction of the constriction amplitude), spasmogen C [3, 7]: -85% | Inhibition of constriction (percentage reduction of the constriction amplitude), spasmogen D [3, 8]: -76% | Inhibition of constriction (percentage reduction of the constriction amplitude), spasmogen A [3, 9]: 16% | Inhibition of constriction (percentage reduction of the constriction amplitude), spasmogen B [3, 10]: 34% | Inhibition of constriction (percentage reduction of the constriction amplitude), spasmogen C [3, 11]: 33% | Inhibition of constriction (percentage reduction of the constriction amplitude), spasmogen D [3, 12]: 24%

Compound: C[C@H]1CCCCC[C@H](O)[C@@H](O)/C=C\C(=O)O1 [cladospolide B]
action on the root growth of lettuce seeds [1]: promotingly

Compound: CC(=O)OC1C=CC(=O)OC(C)CCCCCC1OC(C)=O (stereo not drawn) [diacetylcladospolide A, Diacetylcladospolide A]
inhibition at 2 µg/mL [2, 13]: 17% | inhibition at 10 µg/mL [2, 14]: 92% | inhibition at 40 µg/mL [3, 15]: 6% | inhibition at 40 µg/mL [3, 16]: 44% | inhibition at 40 µg/mL [3, 17]: 45% | inhibition at 40 µg/mL [3, 18]: 46% | inhibition at 2 µg/mL [4, 13]: 14% | inhibition at 10 µg/mL [4, 14]: 96%

Compound: C[C@@H]1CCCCCC[C@H](O)/C=C\C(=O)O1 [patulolide C]
Inhibition of constriction (percentage reduction of the constriction amplitude), spasmogen A [3, 5]: -38% | Inhibition of constriction (percentage reduction of the constriction amplitude), spasmogen B [3, 6]: -35% | Inhibition of constriction (percentage reduction of the constriction amplitude), spasmogen C [3, 7]: -98% | Inhibition of constriction (percentage reduction of the constriction amplitude), spasmogen D [3, 8]: -26% | R = relaxation ([3]; substance 40.00 mcg/ml): R | Inhibition of constriction (percentage reduction of the constriction amplitude), spasmogen A [3, 9]: -24% | Inhibition of constriction (percentage reduction of the constriction amplitude), spasmogen B [3, 10]: -40% | Inhibition of constriction (percentage reduction of the constriction amplitude), spasmogen C [3, 11]: -36% | Inhibition of constriction (percentage reduction of the constriction amplitude), spasmogen D [3, 12]: -33% | plant growth inhibition (plant growth): plant growth inhibiting

Compound: Cn1c(=O)c2[nH]cnc2n(C)c1=O [theophylline, reference compound]
inhibition at 90 µg/mL [2, 19]: 72% | inhibition at 90 µg/mL [4, 19]: 70%

Compound: CC1CCCCCCC(=O)/C=C\C(=O)O1 (stereo not drawn) [patulolide B]
inhibition at 2 µg/mL [2, 13]: 57% | inhibition at 10 µg/mL [2, 14]: 100% | inhibition at 10 µg/mL [3, 20]: 5% | inhibition at 10 µg/mL [3, 21]: 54% | inhibition at 10 µg/mL [3, 22]: 47% | inhibition at 10 µg/mL [3, 23]: 51% | inhibition at 40 µg/mL [3, 15]: 3% | inhibition at 40 µg/mL [3, 16]: 95% | inhibition at 40 µg/mL [3, 17]: 93% | inhibition at 40 µg/mL [3, 18]: 93% | plant growth inhibition (plant growth): plant growth inhibiting | inhibition at 2 µg/mL [4, 13]: 63% | inhibition at 10 µg/mL [4, 14]: 99%

Compound: CC1CCCCCCC(=O)/C=C/C(=O)O1 (stereo not drawn) [patulolide A]
inhibition at 2 µg/mL [2, 13]: 44% | inhibition at 10 µg/mL [2, 14]: 100% | inhibition at 10 µg/mL [3, 20]: 23% | inhibition at 10 µg/mL [3, 21]: 35% | inhibition at 10 µg/mL [3, 22]: 35% | inhibition at 10 µg/mL [3, 23]: 35% | inhibition at 40 µg/mL [3, 15]: 21% | inhibition at 40 µg/mL [3, 16]: 51% | inhibition at 40 µg/mL [3, 17]: 53% | inhibition at 40 µg/mL [3, 18]: 30% | plant growth inhibition (plant growth): plant growth inhibiting | inhibition at 2 µg/mL [4, 13]: 46% | inhibition at 10 µg/mL [4, 14]: 99%
